# Experimental data from US9399649B2, “Compounds for treating spinal muscular atrophy” (PTC Therapeutics Inc., priority 2012, dated 2016).
# Tests used:
# [1] = test system: full length SMN2 minigene mRNA containing SMN2 exon 7; test: SMN2 minigene mRNA splicing RT-qPCR assay in cultured cells; format: cell-based, human; conditions: Homo sapiens, HEK293-H; HEK293H cells stably transfected with SMN2-A minigene, 24 hours, 7-point concentration curve; concentration giving 1.5-fold full length SMN2 mRNA vs vehicle; read-out: EC1.5x for production of full length SMN2 mRNA
# Description: The reverse transcription-quantitative PCR-based (RT-qPCR) assay is used to quantify the level of the full length SMN2 minigene mRNA containing SMN2 exon 7 in a HEK293H cell line stably transfected with said minigene and treated with a test compound.
# HEK293H cells stably transfected with the SMN2-A minigene construct described above (10,000 cells/well) are seeded in 200 ut, of cell culture medium (DMEM plus 10% FBS, with 200 μg/mL hygromycin) in 96-well flat-bottom plates and the plate is immediately swirled to ensure proper dispersal of cells, forming an even monolayer of cells. Cells are allowed to attach for at least 4-6 hours. Test compounds are serially diluted 3.16-fold in 100% DMSO to generate a 7-point concentration curve. A solution of test compound (1 μL, 200× in DMSO) is added to each cell-containing well and the plate is incubated for 24 hours in a cell culture incubator (37° C., 5% CO2, 100% relative humidity). 2 replicates are prepared for each test compound concentration. The cells are then lysed in Cells-To-Ct lysis buffer and the lysate is stored at −80° C.
# Primer SMN Forward A (SEQ ID NO. 1) hybridizes to a nucleotide sequence in exon 7 (nucleotide 22 to nucleotide 40), primer SMN Reverse A (SEQ ID NO. 2) hybridizes to a nucleotide sequence in the coding sequence of Firefly luciferase, SMN Probe A (SEQ ID NO. 3) hybridizes to a nucleotide sequence in exon 7 (nucleotide 50 to nucleotide 54) and exon 8 (nucleotide 1 to nucleotide 21). The combination of these three oligonucleotides detects only SMN1 or SMN2 minigenes (RT-qPCR) and will not detect endogenous SMN1 or SMN2 genes.
# The SMN forward and reverse primers are used at final concentrations of 0.4 μM. The SMN probe is used at a final concentration of 0.15 μM. The GAPDH primers are used at final concentrations of 0.2 μM and the probe at 0.15 μM.
# The SMN2-minigene GAPDH mix (15 μL total volume) is prepared by combining 7.5 μL of 2×RT-PCR buffer, 0.4 μL of 25×RT-PCR enzyme mix, 0.75 μL of 20×GAPDH primer-probe mix, 4.0075 μL of water, 2 μL of 10-fold diluted cell lysate, 0.06 μL of 100 μM SMN forward primer, 0.06 μL of 100 μM SMN reverse primer, and 0.225 μL of 100 μM SMN probe.
# PCR is carried out at the following temperatures for the indicated time: Step 1: 48° C. (15 min); Step 2: 95° C. (10 min); Step 3: 95° C. (15 sec); Step 4: 60° C. (1 min); then repeat Steps 3 and 4 for a total of 40 cycles.
# Each reaction mixture contains both SMN2-A minigene and GAPDH primersprobe sets (multiplex design), allowing simultaneous measurement of the levels of two transcripts.
# Two SMN spliced products are generated from the SMN2 minigene. The first spliced product containing exon 7, corresponding to full length SMN2 mRNA, is referred to herein using the term “SMN2 minigene FL.” The second spliced product lacking exon 7 is referred to herein using the term “SMN2 minigene Δ7.”
# The increase of SMN2 minigene FL mRNA relative to that in cells treated with vehicle control is determined from real-time PCR data using a modified ΔΔCt method (as described in Livak and Schmittgen, Methods, 2001, 25:402-8). The amplification efficiency (E) is calculated from the slope of the amplification curve for SMN2 minigene FL and GAPDH individually. The abundances of SMN2 minigene FL and GAPDH are then calculated as (1+E)^−Ct, where Ct is the threshold value for each amplicon. The abundance of SMN2 minigene FL is normalized to GAPDH abundance. The normalized SMN2 minigene FL abundance from test compound-treated samples is then divided by normalized SMN2 minigene FL abundance from vehicle-treated cells to determine the level of SMN2 FL mRNA relative to vehicle control.
# Smn protein = Smn protein assay in cultured cells (SMN HTRF); format: cell-based, human; conditions: SMA patient fibroblast cells (GM03813), 48 hours; for maximum fold (Fold) increase of Smn protein: 7-point concentration data, relative to vehicle control; for EC1.5x for Smn protein expression: 7-point concentration curve, concentration producing 1.5 times Smn protein vs DMSO vehicle
# Description: The SMN HTRF (homogeneous time resolved fluorescence) assay is used to quantify the level of Smn protein in SMA patient fibroblast cells treated with test compounds.
# Cells are thawed and cultured in DMEM-10% FBS for 72 hours. Cells are trypsinized, counted and re-suspended to a concentration of 25,000 cells/mL in DMEM-10% FBS. The cell suspensions are plated at 5,000 cells per well in a 96 well microtiter plate and incubated for 3 to 5 hours. […] Test compounds are serially diluted 3.16-fold in 100% DMSO to generate a 7-point concentration curve. 1 μL of test compound solution is transferred to cell-containing wells and cells are incubated for 48 hours in a cell culture incubator (37° C., 5% CO2, 100% relative humidity). Triplicate samples are set up for each test compound concentration. After 48 hours, the supernatant is removed from the wells and 25 μL of the RIPA lysis buffer, containing protease inhibitors, is added to the wells and incubated with shaking at room temperature for 1 hour. 25 μL of the diluent is added and then 35 μL of the resulting lysate is transferred to a 384-well plate, where each well contains 5 μL of the antibody solution (1:100 dilution of anti-SMN d2 and anti-SMN kryptate in SMN reconstitution buffer). The plate is centrifuged for 1 minute to bring the solution to the bottom of the wells, then incubated overnight at room temperature. Fluorescence for each well of the plate at 665 nm and 620 nm is measured on an EnVision multilabel plate reader (Perkin-Elmer).
# The normalized fluorescence signal is calculated for each sample, Blank and vehicle control well by dividing the signal at 665 nm by the signal at 620 nm. Normalizing the signal accounts for possible fluorescence quenching due to the matrix effect of the lysate. The ΔF value (a measurement of Smn protein abundance as a percent value) for each sample well is calculated by subtracting the normalized average fluorescence for the Blank control wells from the normalized fluorescence for each sample well, then dividing this difference by the normalized average fluorescence for the Blank control wells and multiplying the resulting value by 100. The ΔF value for each sample well represents the Smn protein abundance from test compound-treated samples. The ΔF value for each sample well is divided by the ΔF value for the vehicle control wells to calculate the fold increase in Smn protein abundance relative to the vehicle control.
melting point,SMILES,EC (1.5-fold) [1],maximum fold (Fold) increase of Smn protein (Smn protein),EC1.5x for Smn protein expression (Smn protein)
140 to 142 °C,"COc1cccc(-c2cc3ccc(N4CCNCC4)cc3c(=O)o2)c1 [Cpd 18, 3-(3-methoxyphenyl)-7-(piperazin-1-yl)-1H-isochromen-1-one]",0.3 to 1 µM,* (A maximum fold increase of ≦1.2 is indicated by one star (*)),–
140 to 142 °C,"COc1cccc(-c2cc3ccc(N4CCN(C)CC4)cc3c(=O)o2)c1 [Cpd 19, 3-(3-methoxyphenyl)-7-(4-methylpiperazin-1-yl)-1H-isochromen-1-one]",3 to 30 µM,* (A maximum fold increase of ≦1.2 is indicated by one star (*)),–
195 to 197 °C,"COc1cccc(-c2cc3ccc(N4C[C@@H](C)N[C@@H](C)C4)cc3c(=O)o2)c1 [Cpd 20, 7-[(3R,5S)-3,5-dimethylpiperazin-1-yl]-3-(3-methoxyphenyl)-1H-isochromen-1-one]",3 to 30 µM,* (A maximum fold increase of ≦1.2 is indicated by one star (*)),–
148 to 150 °C,"COc1cccc(-c2cc3ccc(N4CCCNCC4)cc3c(=O)o2)c1 [Cpd 21, 7-(l,4-diazepan-1-yl)-3-(3-methoxyphenyl)-1H-isochromen-1-one]",3 to 30 µM,* (A maximum fold increase of ≦1.2 is indicated by one star (*)),–
118 to 120 °C,"COc1ccccc1-c1cc2ccc(N3CCN(C)CC3)cc2c(=O)o1 [Cpd 22, 3-(2-methoxyphenyl)-7-(4-methylpiperazin-1-yl)-1H-isochromen-1-one]",1 to 3 µM,* (A maximum fold increase of ≦1.2 is indicated by one star (*)),–
154 to 157 °C,"COc1ccccc1-c1cc2ccc(N3C[C@@H](C)N[C@@H](C)C3)cc2c(=O)o1 [Cpd 23, 7-[(3R,5S)-3,5-dimethylpiperazin-1-yl]-3-(2-methoxyphenyl)-1H-isochromen-1-one]",1 to 3 µM,* (A maximum fold increase of ≦1.2 is indicated by one star (*)),–
235 to 238 °C,"COc1ccc(-c2cc3ccc(N4CCNCC4)cc3c(=O)o2)cc1 [Cpd 24, 3-(4-methoxyphenyl)-7-(piperazin-1-yl)-1H-isochromen-1-one]",0.1 to 0.3 µM,*** (a fold increase between >1.35 and ≦1.5 is indicated by three stars (***)),*** (an EC1.5× between >0.3 nM and ≦1 nM is indicated by three stars (***))
166 to 168 °C,"COc1ccc(-c2cc3ccc(N4CCN(C)CC4)cc3c(=O)o2)cc1 [Cpd 25, 3-(4-methoxyphenyl)-7-(4-methylpiperazin-1-yl)-1H-isochromen-1-one]",1 to 3 µM,* (A maximum fold increase of ≦1.2 is indicated by one star (*)),–
248 °C (dec.),"O=c1oc(-c2cn3ccccc3n2)cc2ccc(N3CCNCC3)cc12 [Cpd 26, 3-(imidazo[1,2-a]pyridin-2-yl)-7-(piperazin-1-yl)-1H-isochromen-1-one]",1 to 3 µM,* (A maximum fold increase of ≦1.2 is indicated by one star (*)),–
252 to 254 °C,"CN1CCN(c2ccc3cc(-c4cn5ccccc5n4)oc(=O)c3c2)CC1 [Cpd 27, 3-(imidazo[1,2-a]pyridin-2-yl)-7-(4-methylpiperazin-1-yl)-1H-isochromen-1-one]",3 to 30 µM,* (A maximum fold increase of ≦1.2 is indicated by one star (*)),–
224 to 226 °C,"O=c1oc(-c2cn3ccsc3n2)cc2ccc(N3CCNCC3)cc12 [Cpd 28, 3-(imidazo[2,1-b][1,3]thiazol-6-yl)-7-(piperazin-1-yl)-1H-isochromen-1-one]",0.3 to 1 µM,*** (a fold increase between >1.35 and ≦1.5 is indicated by three stars (***)),–
109 to 110 °C,"COc1ccc(-c2cc3ccc(N4C[C@@H](C)N[C@@H](C)C4)cc3c(=O)o2)cc1 [Cpd 29, 7-[(3R,5S)-3,5-dimethylpiperazin-1-yl]-3-(4-methoxyphenyl)-1H-isochromen-1-one]",0.3 to 1 µM,* (A maximum fold increase of ≦1.2 is indicated by one star (*)),–
155 to 157 °C,"COc1ccc(-c2cc3ccc(N4CCN[C@@H](C)C4)cc3c(=O)o2)cc1OC [Cpd 30, 3-(3,4-dimethoxyphenyl)-7-[(3S)-3-methylpiperazin-1-yl]-1H-isochromen-1-one]",≤ 0.1 µM,**** (a fold increase between >1.5 and ≦1.65 is indicated by four stars (****)),**** (an EC1.5×≦0.3 nM is indicated by four stars (****))
129 to 131 °C,"COc1ccc(-c2cc3ccc(N4CCN[C@@H](C)C4)cc3c(=O)o2)cc1 [Cpd 31, 3-(4-methoxyphenyl)-7-[(3S)-3-methylpiperazin-1-yl]-1H-isochromen-1-one]",≤ 0.1 µM,**** (a fold increase between >1.5 and ≦1.65 is indicated by four stars (****)),"** (an EC1.5× between >1 μM, and ≦3 nM is indicated by two stars (**))"
143 to 146 °C,"COc1ccccc1-c1cc2ccc(N3CCN[C@@H](C)C3)cc2c(=O)o1 [Cpd 32, 3-(2-methoxyphenyl)-7-[(3S)-3-methylpiperazin-1-yl]-1H-isochromen-1-one]",0.3 to 1 µM,** (a fold increase between >1.2 and ≦1.35 is indicated by two stars (**)),–
